From PMC5640562, “Synthesis and anticancer activity of novel quinazolinone-based rhodanines” (Chemistry Central Journal, 2017) come the findings set out here.

Data set [1] concerns HT-1080 cells. Kind of data set: MTT cytotoxicity assay, HT-1080 fibrosarcoma cells. Type of data set: cell-based, human. The settings on record: Homo sapiens, HT-1080, 72 h, 3 days incubation, mean of three independent experiments (± standard deviation). The protocol: (§1) The compounds were tested for their cytotoxic activity on a solid tumor cell line, i.e. HT-1080 originating from a fibrosarcoma (American Type Culture Collection; ATCC, Rockville, MD, USA), and on two leukemia cell lines, i.e. the HL-60 human promyelocytic leukemia (European Collection of Animal Cell Cultures; ECACC, Salisbury, UK) and the K-562 human chronic myelogenous leukemia (ATCC). Furthermore, the human skin fibroblast strain AG01523 (Coriell Institute for Medical Research, Camden, NJ, USA) was also used as normal control. Adherent cells were routinely cultured in Dulbecco’s […] (DMEM), and leukemia cells in RPMI 1640, in an environment of 5% CO2, 85% humidity, and 37 °C. All media were supplemented with penicillin (100 U/ml), streptomycin (100 μg/ml) (media and antibiotics from Biochrom KG, Berlin, Germany), and 10% fetal bovine serum (Life Technologies Europe BV, Thessaloniki, Greece). Adherent cells were subcultured using a trypsin (0.25%; Life Technologies Europe BV)—citrate (0.30%; Sigma, St. Louis, MO, USA) solution. The cytotoxicity assay was performed by a modification of the MTT method. Briefly, the cells were plated in flat-bottomed 96-well microplates at a density of 5000 cells/well, and incubated overnight before the addition of serial dilutions of the test compounds. The cells were incubated with the compounds or the corresponding vehicle (DMSO) concentrations for 3 days. Then, the medium was replaced with MTT (Sigma) in serum-free, phenol-red-free DMEM (1 mg/ml). After incubation for 4 h, the MTT formazan was solubilized in 2-propanol, and the optical density was measured using a FLUOstar Optima (BMG Labtech, Ortenberg, Germany) microplate reader at a wavelength of 550 nm (reference wavelength 660 nm). Doxorubicin hydrochloride (Sigma) was included in the experiments as positive control. The results represent the mean of three independent experiments and are expressed as IC50 [42].

Data set [2] has as its system HL-60 cells. Kind of data set: MTT cytotoxicity assay, HL-60 promyelocytic leukemia cells. Type of data set: cell-based, human. The settings on record: 3 days incubation, mean of three independent experiments (± standard deviation); for IC50: Homo sapiens, HL-60, 72 h. The protocol: as §1
(Tetrazolium assays rely on reduction of a dye to a coloured formazan, in cell work by metabolically active cells.)

Data set [3] concerns K-562 cells. Kind of data set: MTT cytotoxicity assay, K-562 chronic myelogenous leukemia cells. Type of data set: cell-based, human. The settings on record: 3 days incubation, mean of three independent experiments (± standard deviation); for IC50: Homo sapiens, K562, 72 h. The protocol: as §1
The nature of data set [4]: MTT cytotoxicity assay, normal skin fibroblast strain AG01523. Type of data set: cell-based. The settings on record: AG01523 normal skin fibroblasts, normal human skin fibroblasts, 3 days incubation, mean of three independent experiments (± standard deviation). The protocol: as §1
Data set [5] has as its system HT-1080 cells. In words: Flow cytometric analysis of DNA content (cell cycle phase distribution). In kind it is cell-based, human. The settings on record: 48 h, flow cytometry of DNA content (not shown).

As usually defined, the melting point is the temperature, or range, at which the solid turns liquid. Broadly, the IC50 is the concentration that inhibits the measured activity by half. Lower therefore signals greater potency.

Molecule `O=C1NC(=S)SC1=Cc1ccc(OCc2nc3ccccc3c(=O)n2-c2ccc(Cl)cc2)cc1` (hydrate or solvate) [Compound 33, 5-{4-[(3-(4-Chlorophenyl)-4-oxo-3,4-dihydroquinazolin-2-yl)methoxy]benzylidene}-2-thioxothiazolidin-4-one] registered a melting point of 121 to 123 °C.
With `O=C1NC(=S)SC1=Cc1ccc(OCc2nc3ccccc3c(=O)n2-c2cccc(Cl)c2)cc1` (hydrate or solvate) [Compound 34, 5-{4-[(3-(3-Chlorophenyl)-4-oxo-3,4-dihydroquinazolin-2-yl)methoxy]benzylidene}-2-thioxothiazolidin-4-one], the melting point lay within 237 to 239 °C.
`O=C1NC(=S)SC1=Cc1ccc(OCc2nc3ccccc3c(=O)n2-c2ccc(Br)cc2)cc1` (hydrate or solvate) [Compound 35, 5-{4-[(3-(4-Bromophenyl)-4-oxo-3,4-dihydroquinazolin-2-yl)methoxy]benzylidene}-2-thioxothiazolidin-4-one]: the melting point is 171 to 174 °C.
Molecule `O=C1NC(=S)SC1=Cc1ccc(OCc2nc3ccccc3c(=O)n2-c2cccc(Br)c2)cc1` (hydrate or solvate) [Compound 36, 5-{4-[(3-(3-Bromophenyl)-4-oxo-3,4-dihydroquinazolin-2-yl)methoxy]benzylidene}-2-thioxothiazolidin-4-one] showed a melting point of 252 to 254 °C.
`O=C1NC(=S)SC1=Cc1ccc(OCc2nc3ccccc3c(=O)n2-c2ccc(C(F)(F)F)cc2)cc1` (hydrate or solvate) [Compound 37, 5-{4-[(3-(4-Trifluoromethylphenyl)-4-oxo-3,4-dihydroquinazolin-2-yl)methoxy]benzylidene}-2-thioxothiazolidin-4-one] showed a melting point of 153 to 155 °C.
In the case of `Cc1ccc(-n2c(COc3ccc(C=C4SC(=S)NC4=O)cc3)nc3ccccc3c2=O)cc1` (hydrate or solvate) [Compound 38, 5-{4-[(3-(4-Methylphenyl)-4-oxo-3,4-dihydroquinazolin-2-yl)methoxy]benzylidene}-2-thioxothiazolidin-4-one], the melting point lay in the range of 148 to 150 °C.
Take `COc1cc(C=C2SC(=S)NC2=O)ccc1OCc1nc2ccccc2c(=O)n1-c1ccccc1` (hydrate or solvate) [Compound 41, 5-{4-[(3-Phenyl-4-oxo-3,4-dihydroquinazolin-2-yl)methoxy]-3-methoxybenzylidene}-2-thioxothiazolidin-4-one]: the melting point lay within 243 to 246 °C.
`COc1cc(C=C2SC(=S)NC2=O)ccc1OCc1nc2ccccc2c(=O)n1-c1ccc(Cl)cc1` (hydrate or solvate) [Compound 43, 5-{4-[(3-(4-Chlorophenyl)-4-oxo-3,4-dihydroquinazolin-2-yl)methoxy]-3-methoxybenzylidene}-2-thioxothiazolidin-4-one] yielded a melting point of 239 to 241 °C.
For the molecule `COc1cc(C=C2SC(=S)NC2=O)ccc1OCc1nc2ccccc2c(=O)n1-c1ccc(Br)cc1` (hydrate or solvate) [Compound 45, 5-{4-[(3-(4-Bromophenyl)-4-oxo-3,4-dihydroquinazolin-2-yl)methoxy]-3-methoxybenzylidene}-2-thioxothiazolidin-4-one], the melting point is 214 to 217 °C.
Regarding `COc1cc(C=C2SC(=S)NC2=O)ccc1OCc1nc2ccccc2c(=O)n1-c1cccc(Br)c1` (hydrate or solvate) [Compound 46, 5-{4-[(3-(3-Bromophenyl)-4-oxo-3,4-dihydroquinazolin-2-yl)methoxy]-3-methoxybenzylidene}-2-thioxothiazolidin-4-one], the melting point lay within 243 to 245 °C.
Take `COc1cc(C=C2SC(=S)NC2=O)ccc1OCc1nc2ccccc2c(=O)n1-c1ccc(C)cc1` (hydrate or solvate) [Compound 48, 5-{4-[(3-(4-Methylphenyl)-4-oxo-3,4-dihydroquinazolin-2-yl)methoxy]-3-methoxybenzylidene}-2-thioxothiazolidin-4-one]: the melting point was in the range of 172 to 175 °C.
On the same count and under the same terms, the value for `COc1cc(C=C2SC(=S)NC2=O)ccc1OCc1nc2ccccc2c(=O)n1-c1cccc(C)c1` (hydrate or solvate) [Compound 49, 5-{4-[(3-(3-Methylphenyl)-4-oxo-3,4-dihydroquinazolin-2-yl)methoxy]-3-methoxybenzylidene}-2-thioxothiazolidin-4-one] was 154 to 156 °C.
Turning to `COc1ccc(-n2c(COc3ccc(C=C4SC(=S)NC4=O)cc3OC)nc3ccccc3c2=O)cc1` (hydrate or solvate) [Compound 50, 5-{4-[(3-(4-Methoxyphenyl)-4-oxo-3,4-dihydroquinazolin-2-yl)methoxy]-3-methoxybenzylidene}-2-thioxothiazolidin-4-one], the melting point fell in the range of 148 to 150 °C.
For `O=C1NC(=S)SC1=Cc1ccc(OCc2nc3ccccc3c(=O)n2-c2ccccc2)cc1` [Compound 31, 5-{4-[(3-Phenyl-4-oxo-3,4-dihydroquinazolin-2-yl)methoxy]benzylidene}-2-thioxothiazolidin-4-one], the melting point lay within 230 to 232 °C. Besides, the half-inhibitory concentration (IC50) in data set [1] stood at 42.9 µM.
Consider `Cc1cccc(-n2c(COc3ccc(C=C4SC(=S)NC4=O)cc3)nc3ccccc3c2=O)c1` [Compound 39, 5-{4-[(3-(3-Methylphenyl)-4-oxo-3,4-dihydroquinazolin-2yl)methoxy]benzylidene}-2-thioxothiazolidin-4-one], for which the melting point fell in the range of 165 to 168 °C. This molecule registered a 50% inhibitory concentration (IC50) in data set [1] of 47.5 µM.
For `COc1ccc(-n2c(COc3ccc(C=C4SC(=S)NC4=O)cc3)nc3ccccc3c2=O)cc1` [Compound 40, 5-{4-[(3-(4-Methoxyphenyl)-4-oxo-3,4-dihydroquinazolin-2-yl)methoxy]benzylidene}-2-thioxothiazolidin-4-one], the melting point was 190 to 192 °C (dec.). The molecule further yielded a half-inhibitory concentration (IC50) in data set [1] of 36.4 µM.
As to `COc1cc(C=C2SC(=S)NC2=O)ccc1OCc1nc2ccccc2c(=O)n1-c1ccc(F)cc1` [Compound 42, 5-{4-[(3-(4-Fluorophenyl)-4-oxo-3,4-dihydroquinazolin-2-yl)methoxy]-3-methoxybenzylidene}-2-thioxothiazolidin-4-one], the melting point lay within 163 to 166 °C. This molecule showed an IC50 in data set [1] of 35.8 µM.
`COc1cc(C=C2SC(=S)NC2=O)ccc1OCc1nc2ccccc2c(=O)n1-c1ccc(Cl)cc1` [Compound 43, 5-{4-[(3-(4-Chlorophenyl)-4-oxo-3,4-dihydroquinazolin-2-yl)methoxy]-3-methoxybenzylidene}-2-thioxothiazolidin-4-one]: in data set [1], the midpoint of inhibition, the IC50, lay at 10.2 µM. Further, in data set [2], the “IC50 HL-60 cytotoxicity” value is recorded as “low micromolar range” and 5.1 µM corresponded to half-maximal inhibition (IC50). Also, in data set [3], the “IC50 K-562 cytotoxicity” value is recorded as “low micromolar range” and half-maximal inhibition (IC50) required 4.5 µM. For the same molecule, in data set [4], the half-maximal inhibitory concentration (IC50) at 3 days was > 100 µM. Also, the “Cell cycle phase distribution” value in data set [5] is listed as “S-phase arrest”.
Take `COc1cc(C=C2SC(=S)NC2=O)ccc1OCc1nc2ccccc2c(=O)n1-c1cccc(Cl)c1` [Compound 44, 5-{4-[(3-(3-Chlorophenyl)-4-oxo-3,4-dihydroquinazolin-2-yl)methoxy]-3-methoxybenzylidene]-2-thioxothiazolidin-4-one]: the melting point is 147 to 150 °C. The same molecule yielded an IC50 in data set [1] of 28.4 µM.
Turning to `COc1cc(C=C2SC(=S)NC2=O)ccc1OCc1nc2ccccc2c(=O)n1-c1ccc(Br)cc1` [Compound 45, 5-{4-[(3-(4-Bromophenyl)-4-oxo-3,4-dihydroquinazolin-2-yl)methoxy]-3-methoxybenzylidene}-2-thioxothiazolidin-4-one], the half-inhibitory concentration (IC50) in data set [1] came to 8.7 µM; in data set [2], 1.2 µM; in data set [3], 1.5 µM. Further, the “IC50 HL-60 cytotoxicity” value in data set [2] is “low micromolar range”. For the same molecule, in data set [3], the “IC50 K-562 cytotoxicity” value is on record as “low micromolar range”. In addition, the half-inhibitory concentration (IC50) at 3 days in data set [4] is > 100 µM. The “Cell cycle phase distribution” value in data set [5] is “S-phase arrest”.
Consider `COc1cccc2c1C(=O)c1c(O)c3c(c(O)c1C2=O)C[C@@](O)(C(=O)CO)C[C@@H]3O[C@H]1C[C@H](N)[C@H](O)[C@H](C)O1` [Doxorubicin, reference compound], for which the figures for the IC50 in data set [1], in data set [2] and in data set [3] were 0.012 µM, 0.011 µM and 0.212 µM, respectively. In data set [4], this molecule showed a half-inhibitory concentration (IC50) at 3 days of 0.875 µM.
